According to US9732094B2, “Arylquinazolines” (Merck Patent GmbH, priority 2013, dated 2017):
Like-named read-outs stand apart in the source and are kept apart here.

Experiments:
DNA-PK = DNA-PK (Homo sapiens (Human), UniProt P78527); test: DNA-PK assay (biochemical), flashplate 33P-ATP kinase assay; settings: biochemical DNA-PK assay
In short: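 Radiometric kinase reaction in streptavidin-coated flashplates, stopped with 200 mM EDTA, then 30 min room-temperature incubation and saline washes.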

Kv11.1 (hERG) = Kv11.1 (hERG) (Homo sapiens (Human), UniProt Q12809); test: Kv11.1 (hERG) ion channel activity (patch clamp assay), HEK293 cells transfected with hERG gene; settings: hERG patch clamp assay (cells without asterisk)
[1] = biological target: DNA-PK phosphorylation at serine 2056 (Homo sapiens (Human), UniProt P78527); test: DNA-PK phosphorylation at serine 2056 (cellular), bleomycin-treated HCT116 cells, ELISA; format: cell-based; settings: cellular DNA-PK phosphorylation at serine 2056, HCT116; read-out: IC50 pDNA-PK
In short: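 After overnight seeding, HCT116 cells received compound with 10 μM bleomycin for 6 h; phospho-DNA-PK ELISA signals were scaled to total DNA-PKcs, DMSO serving as blank.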

Chain of Kv11.1 (hERG) (Q12809 whole entry): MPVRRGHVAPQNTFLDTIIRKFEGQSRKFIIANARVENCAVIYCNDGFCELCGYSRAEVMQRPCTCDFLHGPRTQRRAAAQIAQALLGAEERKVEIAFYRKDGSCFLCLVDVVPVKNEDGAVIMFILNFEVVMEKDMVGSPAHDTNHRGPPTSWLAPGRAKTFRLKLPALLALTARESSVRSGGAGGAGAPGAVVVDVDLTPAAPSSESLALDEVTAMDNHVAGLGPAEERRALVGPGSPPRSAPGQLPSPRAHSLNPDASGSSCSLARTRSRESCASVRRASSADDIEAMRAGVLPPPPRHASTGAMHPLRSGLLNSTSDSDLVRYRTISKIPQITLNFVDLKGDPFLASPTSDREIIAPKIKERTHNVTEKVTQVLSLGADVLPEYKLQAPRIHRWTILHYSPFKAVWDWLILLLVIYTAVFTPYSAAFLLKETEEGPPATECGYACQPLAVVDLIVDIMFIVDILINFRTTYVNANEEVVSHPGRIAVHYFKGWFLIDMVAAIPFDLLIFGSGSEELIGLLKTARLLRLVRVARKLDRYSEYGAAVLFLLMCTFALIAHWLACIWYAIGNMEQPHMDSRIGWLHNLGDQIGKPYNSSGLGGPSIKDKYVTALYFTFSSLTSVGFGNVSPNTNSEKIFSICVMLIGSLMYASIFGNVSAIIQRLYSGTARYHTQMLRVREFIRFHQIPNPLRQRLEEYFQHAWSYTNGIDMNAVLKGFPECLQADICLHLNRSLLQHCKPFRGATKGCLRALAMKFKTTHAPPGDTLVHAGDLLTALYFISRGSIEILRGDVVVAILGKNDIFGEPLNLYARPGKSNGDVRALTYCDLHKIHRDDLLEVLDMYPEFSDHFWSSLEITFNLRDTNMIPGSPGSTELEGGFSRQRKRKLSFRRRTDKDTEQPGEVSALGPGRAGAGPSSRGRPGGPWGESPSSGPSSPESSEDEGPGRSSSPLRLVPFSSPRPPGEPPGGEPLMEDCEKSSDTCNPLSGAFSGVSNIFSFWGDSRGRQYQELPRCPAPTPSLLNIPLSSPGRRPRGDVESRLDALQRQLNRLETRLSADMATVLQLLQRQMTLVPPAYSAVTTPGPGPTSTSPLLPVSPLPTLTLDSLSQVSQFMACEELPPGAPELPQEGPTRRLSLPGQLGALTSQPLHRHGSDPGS

Row | Compound | IC50 (DNA-PK) | Ki (Kv11.1 (hERG); Ki [Kv1.11 hERG]) | IC50 [1] | Ki (Kv11.1 (hERG); read-out: Ki [Kv1.11 hERG])
1 | Cn1cnc2c(C(O)c3cc(-c4ncnc5cc(N6CCOCC6)ccc45)ccc3Cl)ncnc21 (stereo not drawn) [Example 371, [2-Chloro-5-(7-morpholin-4-yl-quinazolin-4-yl)-phenyl]-(9-methyl-9H-purin-6-yl)-methanol] | 7 to 30 nM | 10000 to 15000 nM | 500 to 5000 nM | –
2 | OC(c1cc(-c2ncnc3cc(N4CCOCC4)ccc23)ccc1F)c1nccn2ccnc12 (stereo not drawn) [Example 372, [2-Fluoro-5-(7-morpholin-4-yl-quinazolin-4-yl)-phenyl]imidazo-[1,2-a]pyrazin-8-yl-methanol] | 7 to 30 nM | – | 500 to 5000 nM | > 25000 nM
3 | OC(c1cc(-c2ncnc3cc(N4CCOCC4)ccc23)ccc1F)c1cccc2nncn12 (stereo not drawn) [Example 373, [2-Fluoro-5-(7-morpholin-4-yl-quinazolin-4-yl)-phenyl]-[1,2,4]-triazolo[4,3-a]pyridin-5-ylmethanol] | 3 to 7 nM | 15000 to 25000 nM | 500 to 5000 nM | –
4 | OC(c1cc(-c2ncnc3cc(N4CCOCC4)ccc23)ccc1F)c1ncnc2ccoc12 (stereo not drawn) [Example 374, [2-Fluoro-5-(7-morpholin-4-yl-quinazolin-4-yl)-phenyl]furo[3,2-d}-pyrimidin-4-yl-methanol] | < 3 nM | 15000 to 25000 nM | 500 to 5000 nM | –
5 | Cn1c(C(O)c2ccc(F)c(-c3ncnc4cc(N5CCOCC5)ccc34)c2)cccc1=O (stereo not drawn) [Example 375, 6-{[4-Fluoro-3-(7-morpholin-4-yl-quinazolin-4-yl)-phenyl]hydroxy-methyl}-1-methyl-1H-pyridin-2-one] | < 3 nM | – | 500 to 5000 nM | > 25000 nM
6 | Cn1c(C(O)c2ccc(F)c(-c3ncnc4cc(N5CCOCC5)ccc34)c2)cccc1=O (stereo not drawn) [Example 376, 6-{[4-Fluoro-3-(7-morpholin-4-yl-quinazolin-4-yl)-phenyl]hydroxy-methyl}-1-methyl-1H-pyridin-2-one] | < 3 nM | – | < 500 nM | > 25000 nM
7 | Cc1cncnc1C(C(N)=O)c1cc(-c2ncnc3cc(N4CCOCC4)ccc23)ccc1Cl (stereo not drawn) [Example 377, 2-[2-Chloro-5-(7-morpholin-4-yl-quinazolin-4-yl)-phenyl]-2-(5-methyl-pyrimidin-4-yl)-acetamide] | 3 to 7 nM | 15000 to 25000 nM | 500 to 5000 nM | –
8 | Cc1cncnc1C(C(N)=O)c1cc(-c2ncnc3cc(N4CCOCC4)ccc23)ccc1Cl (stereo not drawn) [Example 378, 2-[2-Chloro-5-(7-morpholin-4-yl-quinazolin-4-yl)-phenyl]-2-(5-methyl-pyrimidin-4-yl)-acetamide] | 3 to 7 nM | – | 500 to 5000 nM | > 25000 nM
9 | OC(c1cc(-c2ncnc3cc(N4CCOCC4)ccc23)c(F)cc1F)c1nnc2ccccn12 (stereo not drawn) [Example 379, [2,4-Difluoro-5-(7-morpholin-4-yl-quinazolin-4-yl)-phenyl]-[1,2.4]-triazolo[4,3-a]pyridin-3-ylmethanol] | 3 to 7 nM | – | 500 to 5000 nM | > 25000 nM
10 | Cn1c(C(O)c2cc(-c3ncnc4cc(N5CCOCC5)ccc34)c(F)cc2F)cccc1=O (stereo not drawn) [Example 380, 6-{[2,4-Difluoro-5-(7-morpholin-4-yl-quinazolin-4-yl)-phenyl]hydroxy-methyl}-1-methyl-1H-pyridin-2-one] | 3 to 7 nM | – | 500 to 5000 nM | > 25000 nM
11 | Cn1c(C(O)c2cc(-c3ncnc4cc(N5CCOCC5)ccc34)c(F)cc2F)cccc1=O (stereo not drawn) [Example 381, 6-{[2,4-Difluoro-5-(7-morpholin-4-yl-quinazolin-4-yl)-phenyl]hydroxy-methyl}-1-methyl-1H-pyridin-2-one] | < 3 nM | – | 500 to 5000 nM | > 25000 nM
12 | Cn1c(C(O)c2cc(-c3ncnc4cc(N5CCOCC5)ccc34)c(F)cc2Cl)cccc1=O (stereo not drawn) [Example 382, 6-{[2-Chloro-4-fluoro-5-(7-morpholin-4-yl-quinazolin-4-yl)-phenyl]hydroxy-melhyl}-1-methyl-1H-pyridin-2-one] | 7 to 30 nM | 15000 to 25000 nM | 500 to 5000 nM | –
13 | Cn1c(C(O)c2cc(-c3ncnc4cc(N5CCOCC5)ccc34)c(F)cc2Cl)cccc1=O (stereo not drawn) [Example 383, 6-{[2-Chloro-4-fluoro-5-(7-morpholin-4-yl-quinazolin-4-yl)-phenyl]hydroxy-methyl}-1-methyl-1H-pyridin-2-one] | < 3 nM | – | < 500 nM | > 25000 nM
14 | Cn1cnc2ncnc([C@H](O)c3cc(-c4ncnc5cc(N6CCOCC6)ccc45)c(F)cc3F)c21 [Example 384, (R)-[2,4-Difluoro-5-(7-morpholin-4-yl-quinazolin-4-yl)-phenyl]-(7-methyl-7H-purin-6-yl)-methanol] | 7 to 30 nM | – | 10000 to 30000 nM | > 25000 nM
15 | Cn1ncc2c(C(O)c3cc(-c4ncnc5cc(N6CCOCC6)ccc45)ccc3Cl)ncnc21 (stereo not drawn) [Example 385, [2-Chloro-5-(7-morpholin-4-yl-quinazolin-4-yl)-phenyl]-(1-methyl-1H-pyrazolo[3,4-d}-pyrimidin-4-yl)-methanol] | 7 to 30 nM | – | 500 to 5000 nM | > 25000 nM
16 | OC(c1cc(-c2ncnc3cc(N4CCOCC4)ccc23)c(F)cc1F)c1ncnc2c1CCNC2 (stereo not drawn) [Example 387, [2,4-Difluoro-5-(7-morpholin-4-yl-quinazolin-4-yl)-phenyl]-(5,6,7,8-tetrahydropyrido-[3,4-d}pyrimidin-4-yl)-methanol] | 7 to 30 nM | 15000 to 25000 nM | 500 to 5000 nM | –
17 | OC(c1ccc(F)c(-c2ncnc3cc(N4CCOCC4)ccc23)c1)c1ncnc2c1CCNC2 (stereo not drawn) [Example 388, [4-Fluoro-3-(7-morpholin-4-yl-quinazolin-4-yl)-phenyl]-(5,6,7,8-tetrahydropyrido-[3,4-d}pyrimidin-4-yl)-methanol] | 7 to 30 nM | 10000 to 15000 nM | 500 to 5000 nM | –
18 | OC(c1cc(-c2ncnc3cc(N4CCOCC4)ccc23)ccc1Cl)c1ncncc1F (stereo not drawn) [Example 389, [2-Chloro-5-(7-morpholin-4-yl-quinazolin-4-yl)-phenyl]-(5-fluoro-pyrimidin-4-yl)-methanol] | 7 to 30 nM | 10000 to 15000 nM | 5000 to 10000 nM | –
19 | OC(c1cc(-c2ncnc3cc(N4CCOCC4)ccc23)ccc1Cl)c1ncncc1F (stereo not drawn) [Example 390, [2-Chloro-5-(7-morpholin-4-yl-quinazolin-4-yl)-phenyl]-(5-fluoro-pyrimidin-4-yl)-methanol] | 3 to 7 nM | 15000 to 25000 nM | 500 to 5000 nM | –
20 | Cn1ncc2c(C(O)c3cc(-c4ncnc5cc(N6CCOCC6)ccc45)ccc3F)ncnc21 (stereo not drawn) [Example 391, [2-Fluoro-5-(7-morpholin-4-yl-quinazolin-4-yl)-phenyl]-(1-methyl-1H-pyrazolo[3,4-d}-pyrimidin-4-yl)-methanol] | 7 to 30 nM | 15000 to 25000 nM | 500 to 5000 nM | –
21 | Cc1cncnc1C(O)c1cc(-c2ncnc3cc(N4CCOCC4)ccc23)ccc1F (stereo not drawn) [Example 392, [2-Fluoro-5-(7-morpholin-4-yl-quinazolin-4-yl)-phenyl]-(5-methyl-pyrimidin-4-yl)-methanol] | 3 to 7 nM | 15000 to 25000 nM | 500 to 5000 nM | –
22 | Cc1nccnc1C(O)c1cc(-c2ncnc3cc(N4CCOCC4)ccc23)ccc1F (stereo not drawn) [Example 393, [2-Fluoro-5-(7-morpholin-4-yl-quinazolin-4-yl)-phenyl]-(3-methyl-pyrazin-2-yl)-methanol] | 3 to 7 nM | 15000 to 25000 nM | 5000 to 10000 nM | –
